Values quoted from earlier work as cited in US11944682B2, “Aggregation induced emission-bacteriophage bioconjugates” (priority 2020, dated 2024).

Settings: used as standard

## O=C1OC2(c3cc(I)c(O)c(I)c3Oc3c2cc(I)c(O)c3I)c2c(Cl)c(Cl)c(Cl)c(Cl)c21 [Rose Bengal, Rose Bengal lactone]
  quantum yield for 1O2 (standard): ~75%
